Laboratory results: patent publication US9211291B2, “Treatment regimen utilizing neratinib for breast cancer” (WYETH LLC, priority 2009, dated 2015)

What was measured:
[1] = test system: metastatic erbB-2 positive breast cancer; assay: phase 2 trial of neratinib as a single agent in subjects with metastatic erbB-2 positive breast cancer; type: in vivo, human; details: for median progression-free survival (PFS) / overall response rate (ORR): independent radiology assessment, preliminary data
Text: Neratinib as a single agent has been studied in a phase 2 trial in subjects with metastatic erbB-2 positive breast cancer.

[2] = test system: erbB-1- and/or erbB 2-expressing carcinoma cell lines; details: read-out: cellular IC50, preclinical data; cited from earlier work
[3] = Arm A: subjects with prior trastuzumab treatment
[4] = Arm B: subjects without prior exposure to trastuzumab

## CCOc1cc2ncc(C#N)c(Nc3ccc(OCc4ccccn4)c(Cl)c3)c2cc1NC(=O)/C=C/CN(C)C [neratinib, (2E)-N-[4-[[3-chloro-4-[(pyridin-2-yl)methoxy]phenyl]amino]-3-cyano-7-ethoxyquinolin-6-yl]-4-(dimethylamino)but-2-enamide]
[1]; [3]
  median progression-free survival (PFS): 23 weeks
  overall response rate (ORR): 26%
[1]; [4]
  median progression-free survival (PFS): 40 weeks
  overall response rate (ORR): 57%
[1]; generally well manageable with medication, treatment interruption, or dose modification
  main adverse event: diarrhea
[1]; human, in vivo
  other common adverse events: nausea, vomiting, fatigue, and anorexia
[2]
  IC50: < 100 nM
